Reference: patent US8445521B2, “Synergistic antimicrobial composition” (Dow GLobal Technologies LLC, priority 2009, dated 2013)

Tests used:
[1] = test system: oil field isolated anaerobic consortium, mainly SRB; experiment: Biocidal efficacy (MBC, complete bacterial kill) against anaerobic bacteria in contaminated salt solution; assay type: cell-based, sulfate reducing bacteria (SRB); conditions: 40° C., 24 hours
Experimental: Inside an anaerobic chamber (BACTRON anaerobic chamber), a deaerated sterile salt solution (3.1183 g of NaCl, 1.3082 mg of NaHCO3, 47.70 mg of KCl, 72.00 mg of CaCl2, 54.49 mg of MgSO4, 172.28 mg of Na2SO4, 43.92 mg of Na2CO3 in 1 L water) was contaminated with an oil field isolated anaerobic consortium, mainly SRB, at final bacterial concentrations of 10^6 to 10^7 CFU/mL. The aliquots of this contaminated water were then treated with NaOPP and DMOZ, or the NaOPP/DMOZ combination, NaOPP and Tris Nitro, or the NaOPP/Tris Nitro combination, NaOPP and HHT, or the NaOPP/HHT combination at different active concentration levels. […] Tables 1-3 summarize the efficacy of each biocide and their blends, and the Synergy Index of each combination.

[2] = test system: Pseudomonas aeruginosa, ATCC 10145 and Staphylococcus aureus, ATCC 6538; experiment: Biocidal efficacy (MBC, complete bacteria kill) against aerobic bacteria in contaminated NaCl solution; assay type: cell-based; conditions: 37° C., 24 hours
Experimental: A sterile NaCl solution (0.85%) was contaminated with Pseudomonas aeruginosa, ATCC 10145 and Staphylococcus aureus, ATCC 6538 at final bacterial concentration of ca. 10^6 CFU/mL. The aliquots of this contaminated water were then treated with NaOPP and Tris Nitro, or the NaOPP/Tris Nitro combination, NaOPP and DMOZ or the NaOPP/DMOZ combination at different active concentration levels. After the mixtures were incubated at 37° C. for 24 hours, the biocidal efficacy was determined by minimum tested biocide concentration for complete bacteria kill in the aliquots. Tables 4 and 5 summarize the efficacy of each biocide and their blends, and the Synergy Index of each combination.

[3] = NaOPP alone or NaOPP part of NaOPP/DMOZ blend
[4] = NaOPP alone or NaOPP part of NaOPP/Tris Nitro blend
[5] = Tris Nitro alone or Tris Nitro part of NaOPP/Tris Nitro blend
[6] = DMOZ alone or DMOZ part of NaOPP/DMOZ blend

How did the “MBC (active ppm) NaOPP” value [1, 3] turn out when [Na+].[O-]c1ccccc1-c1ccccc1 [NaOPP, sodium o-phenylphenylate] was run?
The value was 333.3 active ppm.

What about the “MBC (active ppm) NaOPP” value ([1]; NaOPP alone or NaOPP part of NaOPP/HHT blend) of the same compound?
Its value is 500 active ppm.

And the “MBC (active ppm) NaOPP” value [1, 4]?
Its value is 500 active ppm.

And the “Average MBC (active ppm) NaOPP” value [2, 3]?
Its value is 292.9 active ppm.

And the “MBC (active ppm) NaOPP” value [2, 4]?
Its value is 266.3 active ppm.

Which “MBC (active ppm) HHT” value ([1]; HHT alone or HHT part of NaOPP/HHT blend) does the source give for OCCN1CN(CCO)CN(CCO)C1 [HHT, hexahydro-1,3,5-tris(2-hydroxyethyl)-s-triazine] here?
Its value is 111.1 active ppm.

O=[N+]([O-])C(CO)(CO)CO [Tris Nitro, tris(hydroxymethyl)nitromethane] was tested. Which “MBC (active ppm) Tris Nitro” value [1, 5] did it give?
The value was 44.4 active ppm.

And the “MBC (active ppm) Tris Nitro” value [2, 5]?
Its value is 25.1 active ppm.

With CC1(C)COCN1 [DMOZ, 4,4-dimethyloxazolidine] as the compound, how does the “MBC (active ppm) DMOZ” value [1, 6] read?
Its value is 74.1 active ppm.

What about the “Average MBC (active ppm) DMOZ” value [2, 6] of the same compound?
The value was 86.1 active ppm.
